From patent US6416987B1, “Mutants of thymidylate synthase and uses thereof” (Sloan Kettering Institute for Cancer Research, priority 1997, dated 2002)
Where two headings read alike, the source gives them in different places.

Experiments:
[1] = system: TS-negative FSthy21 cells transfected with I108A mutant human TS cDNA; experiment: Growth inhibition assay (alamar Blue), I108A transfectants; details: for Ratio of IC50 values for mutant/wt cells: AG337
Procedure: (§3) The mouse TS-negative FSthy21 cells were used as the host for DNA transfections. This cell line, which is a TS-deficient derivative of mouse FM3A cells, was routinely maintained in MEM medium supplemented with 10% fetal bovine serum and 10×10^−5 M thymidine. Transfections were performed by DOTAP, using 10 μg of DNA/culture. Four days after transfection, cells were placed in selective medium, which contain no thymidine and reduced folate. Colonies having the ability to grow in the absence of thymidine were pooled and propagated as a mass culture.
(§4) Logarithmically growing suspension mouse TS-20 negative FSthy21 cells transfected with wild-type or variant human TS cDNA were seeded in 96-well plates at 1,000 cells/well in 180 μl of complete medium. […] Cell viability was measured by the alamar Blue™ assay. This method incorporates an oxidation-reduction (REDOX) indicator that both fluoresces and changes color in response to chemical reduction of growth medium resulting from cell growth. To above 96-well cultured cells, 25 μl of Alamar Blue (Alamar, Sacramento, Calif.) (10% of incubation volume) were added according to the manufacturer's instructions. The culture 96-well plates were then incubated at 37° C. for 4 hours. Viable cells induce chemical reduction of the media which results in a change in REDOX color from blue to red. The intensity of red color (and fluoresces) is proportional to the viable cells. After incubation, fluorescence is was read at 530-560 nm excitation wavelength and 590 nm emission wavelength by an automated plate reader (model EL340; Bio-Tek). Drug concentrations needed to reduce cell growth by 50% (IC50 values) were determined graphically by plotting of cell growth verses inhibitor concentration.
(§5) The effect of three antifolates and FdUrd on the growth characteristics of transfectants that stably express various TS proteins was evaluated by cytotoxicity studies. Cell growth was measured by the alamar blue assay. IC50 values were calculated as the concentration of inhibitor required to inhibit growth by 50% compared to wild-type transfected cells grown under identical conditions.

[2] = system: TS-negative FSthy21 cells transfected with F225W mutant human TS cDNA; assay type: cell-based, mouse
[3] = system: murine bone marrow cells infected with Wt TS vector; experiment: CFU-GM assay, marrow infected with Wt TS retroviral vector; assay type: cell-based; details: 10 days
[4] = system: murine bone marrow cells infected with G52S mut-TS vector; experiment: CFU-GM assay, marrow infected with G52S mut-TS retroviral vector; assay type: cell-based; details: 10 days
From the text: (§1) The following tables 15-17 summarize additional proof that these mutants confer resistance to chemotherapeutic agents by increasing the number of drug resistant CFU-GM colonies formed by murine bone marrow cells infected with retroviral vectors containing these mutant TS cDNAs.

Normal Bone Marrow cells = experiment: CFU-GM assay, Normal Bone Marrow (retroviral vector study); assay type: cell-based, murine; details: 10 days
From the text: as §1

[5] = system: TS-negative FSthy21 cells transfected with F225L mutant human TS cDNA; assay type: cell-based, mouse; details: AG337; F225L/clone (3) vs wild-type clone (1)
[6] = system: mouse bone marrow cells transfected with mutant TS (TS175); experiment: CFU-GM / HPPCFU-C assay, marrow transfected with plasmid TS175; assay type: cell-based
Procedure: (§2) DNA into Mouse Bone Marrow Progenitor Cells Twenty micrograms of plasmid DNA (TS161 or TS175) and ten micrograms of DOTAP were diluted to 100 μl with HBS buffer and incubated at room temperature for 10 minutes. The mixture was added to 2×10^6 mouse bone marrow cells suspended in 0.5 ml of IMDM medium (in a 35 mm culture dish). After a 4 hour incubation at 37° C., 2 ml of IMDM with 30% FBS was added to each dish and the incubation was continued for 24 hours. […] Transfected cells prepared as described above were distributed into 10×35 mm dishes (3×10^5 cells in […] IMDM media/dish). […] Drug was added at the indicated concentration to each dish and the cells were cultured at 37° C. (5% CO2) for 10-14 days.

[7] = system: in situ TS activity in AG337-resistant HT1080 cell lines; experiment: Whole cell TS assay (tritium release); assay type: cell-based, human; details: resistant lines HT1080/1b, 2b, 1c, 2c, 1d, 2d, 6e at minimal AG337 concentration giving no detectable TS activity in HT1080
Procedure: Resistance to TS inhibitors was evaluated using the whole cell TS assay for several AG337-resistant sublines and parental cell line HT1080 as a control. […] For the absence of TS inhibitors, cells convert 2′-[5-^3H]-deoxyuridine to dTMP, releasing ^3H2O into the medium. The rate of dTMP synthesis in the presence or absence of drug was assessed at 0, 15, 30, 40 minutes, by measurement of [3H]2O release by charcoal-TCA (trichloroacetic acid) separation of ^3H2O from nucleosides and nucleotides. Radioactivity was quantitated using a liquid scintillation counter (Beckman LS5).
The effect of AG337 on whole cell in situ TS activity was measured by the tritium release assay in HT1080 cells and several resistant cell lines with putative mutations. The cell lines HT1080/1b, HT1080/2b, HT1080/1c, HT1080/2c, HT1080/1d, HT1080/2d and HT1080/6e were resistant to AG337. […] This method provided a rapid qualitative confirmation of whether or not a cell line is resistant to AG337.

HT1080 cells = experiment: AG337 sensitivity of HT1080 (colony formation); assay type: cell-based, human; details: drug cytotoxicity assay
Procedure: The optimum concentration of AG337 for selection of resistant clones was determined as follows. The human fibrosarcoma HT1080 cells were seeded into 6-well plates at 100 cells per well and incubated at 37° C. with complete medium. Various concentrations of AG337 were added after 24 hours. Drug-containing medium was changed every 4 days and surviving colonies were counted after 14 days of drug treatment.

[8] = system: TS-negative FSthy21 cells transfected with G52S mutant human TS cDNA; assay type: cell-based, mouse
[9] = system: TS-negative FSthy21 cells transfected with K47E mutant human TS cDNA; assay type: cell-based, mouse; details: AG337; K47E/clone (2) vs wild-type clone (1)
[10] = system: TS-negative FSthy21 cells transfected with L221S mutant human TS cDNA; assay type: cell-based, mouse; details: AG337; L221S/clone (2) vs wild-type clone (1)
[11] = system: TS-negative FSthy21 cells transfected with L221A mutant human TS cDNA; assay type: cell-based, mouse; details: AG337; L221A/clone (2) vs wild-type clone (1)
[12] = system: mouse bone marrow cells (N.B.M.); experiment: CFU-GM / HPPCFU-C assay, N.B.M.; assay type: cell-based
[13] = system: TS-negative FSthy21 cells transfected with D49G mutant human TS cDNA; assay type: cell-based, mouse
[14] = molecular target: TS-negative FSthy21 cells transfected with I108A mutant human TS cDNA (Homo sapiens, UniProt P04818, P2L/I108A, cells depend on it); experiment: Growth inhibition assay (alamar Blue), I108A transfectants; details: read-out: IC50 values, AG337, 7-day exposure
Procedure: as §3, §4, §5

[15] = system: TS-negative FSthy21 cells transfected with F225Y mutant human TS cDNA; assay type: cell-based, mouse; details: AG337; F225Y/clone (1) vs wild-type clone (1)
[16] = system: TS-negative FSthy21 cells transfected with I108F mutant human TS cDNA; assay type: cell-based, mouse; details: AG337; 1108F/clone (2) vs wild-type clone (2)
[17] = system: TS-negative FSthy21 cells transfected with L221I mutant human TS cDNA; assay type: cell-based, mouse; details: AG337; L221I/clone (1) vs wild-type clone (1)
[18] = system: mouse bone marrow cells transfected with wild type TS (TS161); experiment: CFU-GM / HPPCFU-C assay, marrow transfected with plasmid TS161; assay type: cell-based
Procedure: as §2

TS-negative FSthy21 cells transfected with I108A mutant human TS cDNA (Homo sapiens, UniProt P04818, P2L/I108A, cells depend on it), sequence (P04818 whole entry P2L/I108A): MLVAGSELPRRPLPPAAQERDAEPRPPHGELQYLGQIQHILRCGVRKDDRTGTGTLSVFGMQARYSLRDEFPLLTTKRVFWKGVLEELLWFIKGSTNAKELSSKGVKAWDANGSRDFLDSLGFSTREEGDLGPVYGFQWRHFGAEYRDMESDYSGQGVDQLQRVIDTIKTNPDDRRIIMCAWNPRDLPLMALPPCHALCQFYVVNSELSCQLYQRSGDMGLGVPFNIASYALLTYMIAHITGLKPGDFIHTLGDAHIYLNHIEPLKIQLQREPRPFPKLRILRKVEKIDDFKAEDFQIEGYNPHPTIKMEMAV

Cc1nc2ccc3ccc(CNc4ccc5c(c4)CN([C@@H](CCC(=O)O)C(=O)O)C5=O)cc3c2c(=O)[nH]1
resistance, IC50 values greater than wild-type transfectants ([1]; I108A transfectants vs wild-type transfectants): 6 fold | resistance, IC50 values greater than wild-type transfectants ([2]; F225W transfectants vs wild-type transfectants): 22 fold

O=c1[nH]cc(F)c(=O)[nH]1 [5-FU, 5-fluorouracil]
CFU-C ([3]; 10^−5 M 5-FU): 0 | CFU-C ([3]; 10^−6 M 5-FU): 91 | CFU-C, % in parentheses ([3]; 10^−6 M 5-FU): 54% | HPPCFU-C ([3]; 10^−6 M 5-FU): 6 | HPPCFU-C, % in parentheses ([3]; 10^−6 M 5-FU): 14% | CFU-C ([4]; 10^−5 M 5-FU): 10 | CFU-C, % in parentheses ([4]; 10^−5 M 5-FU): 6% | CFU-C ([4]; 10^−6 M 5-FU): 117 | CFU-C, % in parentheses ([4]; 10^−6 M 5-FU): 72% | HPPCFU-C ([4]; 10^−6 M 5-FU): 21 | HPPCFU-C, % in parentheses ([4]; 10^−6 M 5-FU): 40% | CFU-C (Normal Bone Marrow cells; 10^−5 M 5-FU): 0 | CFU-C (Normal Bone Marrow cells; 10^−6 M 5-FU): 16 | CFU-C, % in parentheses (Normal Bone Marrow cells; 10^−6 M 5-FU): 10% | HPPCFU-C (Normal Bone Marrow cells; 10^−6 M 5-FU): 0

Cc1ccc2nc(N)[nH]c(=O)c2c1Sc1ccncc1 [AG337]
Ratio of IC50 values for mutant/wt cells [5]: 1.0(1) | HPPCFU-C colonies ([6]; AG337 1 × 10^−7 M): 8 | HPPCFU-C colonies, % in parentheses ([6]; AG337 1 × 10^−7 M): 6% | CFU-GM colonies ([6]; AG337 1 × 10^−8 M): 60 | CFU-GM colonies, % in parentheses ([6]; AG337 1 × 10^−8 M): 42% | CFU-GM colonies ([6]; AG337 2 × 10^−7 M): 12 | CFU-GM colonies, % in parentheses ([6]; AG337 2 × 10^−7 M): 8% | TS activity in whole cells [7]: not totally inhibited | IC50 (HT1080 cells): 2.1 µM | Ratio of IC50 values for mutant/wt cells ([8]; AG337, G52S/clone (3) vs wild-type clone (1)): 12(1) | resistance, IC50 values greater than wild-type transfectants ([8]; G52S transfectants vs wild-type transfectants): 12 fold | Ratio of IC50 values for mutant/wt cells [9]: 5.0(1) | Ratio of IC50 values for mutant/wt cells [10]: 4.5(1) | Ratio of IC50 values for mutant/wt cells [11]: 5.5(1) | HPPCFU-C colonies ([12]; AG337 1 × 10^−7 M): 0 | CFU-GM colonies ([12]; AG337 1 × 10^−8 M): 10 | CFU-GM colonies, % in parentheses ([12]; AG337 1 × 10^−8 M): 12% | CFU-GM colonies ([12]; AG337 2 × 10^−7 M): 0 | Ratio of IC50 values for mutant/wt cells ([13]; AG337, D49G/clone (1) vs wild-type clone (1)): 40(1) | resistance, IC50 values greater than wild-type transfectants ([13]; D49G transfectants vs wild-type transfectants): 40 fold | GI50 ([14]; 1108A/clone (1) [175-1]): 30.5 ± 3.7 µM | GI50 ([14]; 1108A/clone (2) [175-2]): 29 ± 2.5 µM | GI50 ([14]; 1108A/clone (3) [175-3]): 76.6 ± 2.8 µM | Ratio of IC50 values for mutant/wt cells ([1]; 1108A/clone (1) vs wild-type clone (2)): 80(2)^2 | Ratio of IC50 values for mutant/wt cells ([1]; 1108A/clone (2) vs wild-type clone (2)): 76(2) | Ratio of IC50 values for mutant/wt cells ([1]; 1108A/clone (3) vs wild-type clone (2)): 200(2) | biggest difference in IC50 values between clones ([1]; clones 175-2 and 175-3): less than 3 fold | Ratio of IC50 values for mutant/wt cells [15]: 1.5(1) | Ratio of IC50 values for mutant/wt cells ([2]; AG337, F225W/clone (2) vs wild-type clone (1)): 1.0(1) | Ratio of IC50 values for mutant/wt cells [16]: 7.0(2) | Ratio of IC50 values for mutant/wt cells [17]: 5.2(1) | HPPCFU-C colonies ([18]; AG337 1 × 10^−7 M): 0 | CFU-GM colonies ([18]; AG337 1 × 10^−8 M): 20 | CFU-GM colonies, % in parentheses ([18]; AG337 1 × 10^−8 M): 19% | CFU-GM colonies ([18]; AG337 2 × 10^−7 M): 0
